What was measured:
mouse TAAR1 = mouse TAAR1 (Mus musculus (Mouse), UniProt Q923Y8); assay: Radioligand binding assay on mouse TAAR1; details: for Ki: mouse TAAR1, membranes of stably transfected HEK-293 cells, first value of mouse/rat pair
Method: (§1) Construction of TAAR Expression Plasmids and Stably Transfected Cell Lines
(§2) For the construction of expression plasmids the coding sequences of human, rat and mouse TAAR 1 were amplified from genomic DNA essentially as described by Lindemann et al.. The Expand High Fidelity PCR System (Roche Diagnostics) was used with 1.5 mM Mg^2+ and purified PCR products were cloned into pCR2.1-TOPO cloning vector (Invitrogen) following the instructions of the manufacturer. PCR products were subcloned into the pIRESneo2 vector (BD Clontech, Palo Alto, Calif.), and expression vectors were sequence verified before introduction in cell lines.
(§3) HEK293 cells (ATCC # CRL-1573) were cultured essentially as described by Lindemann et al. (2005). For the generation of stably transfected cell lines HEK293 cells were transfected with the pIRESneo2 expression plasmids containing the TAAR coding sequences (described above) with Lipofectamine 2000 (Invitrogen) according to the instructions of the manufacturer, and 24 hrs post transfection the culture medium was supplemented with 1 mg/ml G418 (Sigma, Buchs, Switzerland). After a culture period of about 10 d clones were isolated, expanded and tested for responsiveness to trace amines (all compounds purchased from Sigma) with the cAMP Biotrak Enzyme immunoassay (EIA) System (Amersham) following the non-acetylation EIA procedure provided by the manufacturer.
Radioligand Binding Assay on Mouse TAAR1
(§4) Membrane Preparation and Radioligand Binding.
(§5) HEK-293 cells stably expressing mouse TAAR1 were maintained at 37° C. and 5% CO2 in DMEM high glucose medium, containing fetal calf serum (10%, heat inactivated for 30 min at 56° C.), penicillin/streptomycin (1%), and 375 μg/ml geneticin (Gibco). Cells were released from culture flasks using trypsin/EDTA, harvested, washed twice with ice-cold PBS (without Ca^2+ and Mg^2+), pelleted at 1′000 rpm for 5 min at 4° C., frozen and stored at −80° C. Frozen pellets were suspended in 20 ml HEPES-NaOH (20 mM, pH 7.4) containing 10 mM EDTA and homogenized with a Polytron (PT 6000, Kinematica) at 14,000 rpm for 20 s. The homogenate was centrifuged at 48,000×g for 30 min at 4° C. Subsequently, the supernatant was removed and discarded, and the pellet resuspended in 20 ml HEPES-NaOH (20 mM, pH 7.4) containing 0.1 mM EDTA using the Polytron (20 s at 14,000 rpm). This procedure was repeated and the final pellet resuspended in HEPES-NaOH containing 0.1 mM EDTA and homogenized using the Polytron. Typically, aliquots of 2 ml membrane portions were stored at −80° C. With each new membrane batch the dissociation constant (Kd) was determined via a saturation curve. […] Nonspecific binding was defined as the amount of ^3[H]—(S)-4-[(ethyl-phenyl-amino)-methyl]-4,5-dihydro-oxazol-2-ylamine bound in the presence of 10 μM unlabeled ligand. All compounds were tested at a broad range of concentrations (10 pM to 10 μM) in duplicates. […] The 96 deep well plates were incubated for 1 hr at 4° C. Incubations were terminated by rapid filtration through Unifilter-96 plates (Packard Instrument Company) and glass filters GF/C (Perkin Elmer) presoaked for 1 hr in polyethylenimine (0.3%) and washed 3 times with 1 ml of cold binding buffer. After addition of 45 μl of Microscint 40 (PerkinElmer) the Unifilter-96 plate was sealed and after 1 hr the radioactivity counted using a TopCount Microplate Scintillation Counter (Packard Instrument Company).

rat TAAR1 = rat TAAR1 (Rattus norvegicus (Rat), UniProt Q923Y9); assay: Radioligand binding assay on rat TAAR1; details: for Ki: rat TAAR1, membranes of stably transfected HEK-293 cells, second value of mouse/rat pair
Method: as §1, §2, §3
Radioligand Binding Assay on Rat TAAR1
as §4
as §5, with “rat” for “mouse”, “[H]—(S)-4-[(ethyl-phenyl-amino)-methyl]-4,5-dihydro-oxazol-2-ylamine” for “^3[H]—(S)-4-[(ethyl-phenyl-amino)-methyl]-4,5-dihydro-oxazol-2-ylamine”

mouse TAAR1, sequence (Q923Y8 whole entry): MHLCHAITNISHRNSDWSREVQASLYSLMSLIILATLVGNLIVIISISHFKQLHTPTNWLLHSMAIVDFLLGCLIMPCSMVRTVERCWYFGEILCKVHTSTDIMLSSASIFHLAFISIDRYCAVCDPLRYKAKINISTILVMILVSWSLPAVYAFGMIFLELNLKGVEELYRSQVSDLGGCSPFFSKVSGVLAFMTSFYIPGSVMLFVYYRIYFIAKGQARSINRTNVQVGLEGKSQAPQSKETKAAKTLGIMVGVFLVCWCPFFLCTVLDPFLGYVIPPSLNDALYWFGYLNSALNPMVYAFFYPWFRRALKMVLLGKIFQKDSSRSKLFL
rat TAAR1, sequence (Q923Y9 whole entry): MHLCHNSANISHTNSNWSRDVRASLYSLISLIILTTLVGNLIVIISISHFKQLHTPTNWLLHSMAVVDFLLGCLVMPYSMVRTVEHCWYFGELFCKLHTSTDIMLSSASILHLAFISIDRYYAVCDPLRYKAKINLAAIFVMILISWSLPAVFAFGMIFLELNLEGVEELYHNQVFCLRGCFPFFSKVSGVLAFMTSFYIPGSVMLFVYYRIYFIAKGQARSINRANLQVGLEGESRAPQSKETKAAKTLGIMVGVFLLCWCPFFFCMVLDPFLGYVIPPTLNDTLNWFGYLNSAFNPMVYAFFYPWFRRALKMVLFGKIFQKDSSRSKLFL

| Ki (mouse TAAR1) | Ki (rat TAAR1) | Kd (mouse TAAR1; mouse TAAR1 membranes, saturation curve, read-out: dissociation constant (Kd) of the radioligand) | Kd (rat TAAR1; rat TAAR1 membranes, saturation curve, read-out: dissociation constant (Kd) of the radioligand) | Structure (SMILES) |
| --- | --- | --- | --- | --- |
| 0.232 µM | 0.0544 µM |  |  | Cc1cc(C(=O)Nc2ccc3c(c2)CC[C@@H](N)C3)nc(C(F)(F)F)n1 [Example 6, (R)—N-(6-Amino-5,6,7,8-tetrahydronaphthalen-2-yl)-6-methyl-2-(trifluoromethyl)-pyrimidine-4-carboxamide] |
| 0.0159 µM | 0.0072 µM |  |  | NC1CCc2cc(NC(=O)c3ccnc(C(F)(F)F)c3)ccc2C1 (stereo not drawn) [Example 1, N-(6-Amino-5,6,7,8-tetrahydronaphthalen-2-yl)-2-(trifluoromethyl)isonicotinamide] |
| 0.0006 µM | 0.001 µM |  |  | N[C@H]1CCc2cc(NC(=O)c3ccc4ccccc4c3)ccc2C1 [Example 43, (S)—N-(6-Amino-5,6,7,8-tetrahydronaphthalen-2-yl)-2-naphthamide] |
| 0.0187 µM | 0.0216 µM |  |  | CCOc1cc(C(=O)Nc2ccc3c(c2)CC[C@H](N)C3)ccn1 [Example 19, (S)—N-(6-Amino-5,6,7,8-tetrahydronaphthalen-2-yl)-2-ethoxyisonicotinamide] |
| 0.003 µM | 0.0026 µM |  |  | CCc1ccc(NC(=O)Nc2ccc3c(c2)CC[C@H](N)C3)cc1 [Example 64, (S)-1-(6-Amino-5,6,7,8-tetrahydronaphthalen-2-yl)-3-(4-ethylphenyl)urea] |
| 0.0914 µM | 0.0055 µM |  |  | CCCc1cc(C(=O)Nc2ccc3c(c2)CC[C@@H](N)C3)nn1CC(F)F [Example 4, (R)—N-(6-Amino-5,6,7,8-tetrahydronaphthalen-2-yl)-1-(2,2-difluoroethyl)-5-propyl-1H-pyrazole-3-carboxamide] |
| 0.0007 µM | 0.0003 µM |  |  | N[C@H]1CCc2cc(NC(=O)c3[nH]nc(-c4ccc(Cl)o4)c3Cl)ccc2C1 [Example 25, (S)—N-(6-Amino-5,6,7,8-tetrahydronaphthalen-2-yl)-4-chloro-3-(5-chlorofuran-2-yl)-1H-pyrazole-5-carboxamide] |
| 0.0028 µM | 0.0037 µM |  |  | Cc1ccc(-n2cc(C(=O)Nc3ccc4c(c3)CC[C@H](N)C4)cn2)cc1 [Example 27, (S)—N-(6-Amino-5,6,7,8-tetrahydronaphthalen-2-yl)-1-p-tolyl-1H-pyrazole-4-carboxamide] |
| 0.0083 µM | 0.0119 µM |  |  | CCc1n[nH]c(C(=O)Nc2ccc3c(c2)OC[C@H](N)C3)c1C [Example 88, (R)—N-(3-Aminochroman-7-yl)-3-ethyl-4-methyl-1H-pyrazole-5-carboxamide] |
| 0.0318 µM | 0.0198 µM |  |  | Cc1cc(C(=O)Nc2ccc3c(c2)CC[C@H](N)C3)nc(C(F)(F)F)n1 [Example 7, (S)—N-(6-Amino-5,6,7,8-tetrahydronaphthalen-2-yl)-6-methyl-2-(trifluoromethyl)-pyrimidine-4-carboxamide] |
| 0.003 µM | 0.0017 µM |  |  | NC1CCc2cc(C(=O)Nc3cccc(OC(F)(F)F)c3)ccc2C1 (stereo not drawn) [Example 55, 6-Amino-N-(3-(trifluoromethoxy)phenyl)-5,6,7,8-tetrahydronaphthalene-2-carboxamide] |
| 0.0007 µM | 0.0003 µM |  |  | N[C@H]1CCc2cc(NC(=O)c3cnn(-c4ccc(Cl)c(Cl)c4)c3)ccc2C1 [Example 28, (S)—N-(6-Amino-5,6,7,8-tetrahydronaphthalen-2-yl)-1-(3,4-dichlorophenyl)-1H-pyrazole-4-carboxamide] |
| 0.001 µM | 0.0009 µM |  |  | N[C@H]1CCc2cc(NC(=O)Nc3ccc(C4CC4)cc3)ccc2C1 [Example 72, (S)-1-(6-Amino-5,6,7,8-tetrahydronaphthalen-2-yl)-3-(4-cyclopropylphenyl)urea] |
| 0.105 µM | 0.309 µM |  |  | NC1CCc2cc(C(=O)Nc3cnc(C4CC4)nc3)ccc2C1 (stereo not drawn) [Example 32, 6-Amino-N-(2-cyclopropylpyrimidin-5-yl)-5,6,7,8-tetrahydronaphthalene-2-carboxamide] |

The remaining lines, values behind:

| Structure (SMILES) | Ki (mouse TAAR1) | Ki (rat TAAR1) | Kd (mouse TAAR1; mouse TAAR1 membranes, saturation curve, read-out: dissociation constant (Kd) of the radioligand) | Kd (rat TAAR1; rat TAAR1 membranes, saturation curve, read-out: dissociation constant (Kd) of the radioligand) |
| --- | --- | --- | --- | --- |
| N[C@H]1CCc2cc(Nc3ccc(C(F)(F)F)cn3)ccc2C1 [Example 38, (S)—N6-(5-(Trifluoromethyl)pyridin-2-yl)-1,2,3,4-tetrahydronaphthalene-2,6-diamine] | 0.0032 µM | 0.0021 µM |  |  |
| CCCc1cc(C(=O)Nc2ccc3c(c2)OC[C@@H](N)C3)nn1CC(F)F [Example 11, (S)—N-(3-Aminochroman-7-yl)-1-(2,2-difluoroethyl)-5-propyl-1H-pyrazole-3-carboxamide] | 0.187 µM | 0.0096 µM |  |  |
| N[C@H]1COc2cc(Nc3ncc(Cl)cn3)ccc2C1 [Example 93, (R)—N7-(5-Chloropyrimidin-2-yl)chroman-3,7-diamine] | 0.042 µM | 0.0374 µM |  |  |
| CCN(C[C@H]1COC(N)=N1)c1ccccc1 [(S)-4-[(ethyl-phenyl-amino)-methyl]-4,5-dihydro-oxazol-2-ylamine, reference compound] |  |  | ~0.7 nM | ~2.3 nM |
| N[C@@H]1CCc2cc(NC(=O)c3ccccc3Cl)ccc2C1 [Example 15, (R)—N-(6-Amino-5,6,7,8-tetrahydronaphthalen-2-yl)-2-chlorobenzamide] | 1.97 µM | 0.6 µM |  |  |
| CCc1ccc(Nc2ccc3c(c2)CC[C@H](N)C3)cc1 [Example 53, (S)—N6-(4-Ethylphenyl)-1,2,3,4-tetrahydronaphthalene-2,6-diamine] | 0.006 µM | 0.0083 µM |  |  |
| Cc1cc(C(=O)Nc2ccc3c(c2)OC[C@@H](N)C3)nc(C(F)(F)F)n1 [Example 13, (S)—N-(3-Aminochroman-7-yl)-6-methyl-2-(trifluoromethyl)pyrimidine-4-carboxamide] | 1.45 µM | 0.241 µM |  |  |
| Cc1cc(C(=O)Nc2ccc3c(c2)OCC(N)C3)nc(C(F)(F)F)n1 (stereo not drawn) [Example 9, N-(3-Aminochroman-7-yl)-6-methyl-2-(trifluoromethyl)pyrimidine-4-carboxamide] | 0.0805 µM | 0.114 µM |  |  |
| N[C@H]1COc2cc(Nc3ncc(C(F)(F)F)cn3)ccc2C1 [Example 80, (R)—N7-(5-(Trifluoromethyl)pyrimidin-2-yl)chroman-3,7-diamine] | 0.0163 µM | 0.0196 µM |  |  |
| N[C@H]1CCc2c(ccc(NC(=O)c3ccc(Cl)nc3)c2Cl)C1 [Example 76, (S)—N-(6-Amino-1-chloro-5,6,7,8-tetrahydronaphthalen-2-yl)-6-chloronicotinamide] | > 1.51 µM | 0.302 µM |  |  |
